Laboratory results: patent US9403873B2, “Peptides targeting receptor activator of nuclear factor-κB (RANK) and their applications” (UNIVERSITE DE NANTES, priority 2011, dated 2016)
Ends that are not written are not given here.

What was measured:
hRANK = biological target: T1, hRANK (Homo sapiens, UniProt Q9Y6Q6); experiment: Saturation transfer difference (STD) NMR of Pep8 binding to RANK; settings: Pep8:RANK-Fc 100:1 to 1000:1, phosphate buffer
T1 construct: For NMR experiments with soluble RANK receptor-Fc (R&D Systems); purchased R&D Systems
T1 sequence (Q9Y6Q6 30-212 limits assumed): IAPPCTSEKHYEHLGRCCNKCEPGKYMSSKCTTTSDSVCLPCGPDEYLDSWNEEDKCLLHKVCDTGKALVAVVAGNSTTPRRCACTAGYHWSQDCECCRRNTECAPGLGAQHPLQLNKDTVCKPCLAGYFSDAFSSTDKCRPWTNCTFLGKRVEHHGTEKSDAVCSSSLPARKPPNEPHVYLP
Description: NMR experiments were run at 500.13 MHz for ^1H on a Bruker AVANCE 500 spectrometer with a Linux PC workstation, using standard 5 mm or Shigemi 3 mm tubes with susceptibility matched to solvent ^2H2O/Water sample tubes. The spectra of the polypeptide Pep8 at 0.1, 0.2, 0.4 or 1 mM sample concentrations were recorded in 50 mM sodium phosphate buffer at pH 7.4, prepared in 95% H2O and 5% ^2H2O. Two-dimensional NMR spectra were recorded in the phase-sensitive mode using the States—TPPI method (States et al. 1982). […] The two-dimensional COSY, TOCSY and NOESY spectra were recorded at 280 K. TOCSY spectra were recorded using a MLEV-17 spin-lock sequence (Bax et al. 1985) with a mixing time (τm) of 35 and 70 ms, respectively. 2D NOESY experiments were recorded at a mixing time (τm) of 100, 200 or 500 ms. The heteronuclear spectra ^1H-^13C HSQC were recorded at 280 K in the same conditions. […] Transferred nuclear Overhauser effect (TRNOESY) spectra of Pep8 with RANK receptor-Fc protein were recorded using a mixing time (Tm) of 100, 200 or 500 ms.
^1D ^1H STD NMR spectra of the polypeptide—protein mixtures were recorded at 500 MHz with 4K scans and selective saturation of protein resonances as described previously (Pons et al. 2011). […]

murine CD11b+ cells = type: cell-based, mouse
From the text: Human peripheral blood mononuclear cells (PBMCs) were isolated by centrifugation over Ficoll gradient (Sigma, Saint Quentin Fallavier, France). CD14^+ cells were magnetically labeled with CD14 Microbeads and positively selected by MACS technology (Miltenyi Biotec, Paris, France) as described previously (Duplomb et al. 2008). CD11b^+ monocytes were purified from murine bone marrow cells obtained by flushing the bone marrow from femora and tibiae of 4-week-old C57BL6 male mice, using MACS microbeads (Baud'huin et al. 2010). The purity of cell preparations was around 96%, as controlled by flow cytometry. Generation of osteoclasts from human CD14^+ and murine CD11b^+ monocytes was performed as described previously (Duplomb et al. 2008, Baud′huin et al. 2010). Briefly, purified cells were cultured in α-minimum essential medium (α-MEM, Gibco/Invitrogen, USA) with 10% fetal calf serum and 25 ng/mL human/murine macrophage colony-stimulating factor (M-CSF, R&D Systems, Abindgton, UK). After 3 days of culture, cell medium was replaced by fresh medium containing M-CSF and recombinant human RANKL (100 ng/mL, R&D system), supplemented with or without a polypeptide of interest (0.5-100 μM) or 50 ng/mL human OPG (R&D Systems) used as a reference inhibitor. Soluble cytokines, receptor and polypeptides were renewed every 3 days until multinucleated osteoclasts had formed. After 12 days of culture for CD14^+ cells and 15 days for CD11b^+ cells, osteoclasts were visualized by TRAP staining (Sigma, France) and cells formed with three or more nuclei were manually counted and analyzed statistically.

[1] = Stability of the polypeptide under NMR conditions in phosphate buffer; type: physicochemical; settings: without protein, 2 weeks
Description: NMR experiments were run at 500.13 MHz for ^1H on a Bruker AVANCE 500 spectrometer with a Linux PC workstation, using standard 5 mm or Shigemi 3 mm tubes with susceptibility matched to solvent ^2H2O/Water sample tubes. The spectra of the polypeptide Pep8 at 0.1, 0.2, 0.4 or 1 mM sample concentrations were recorded in 50 mM sodium phosphate buffer at pH 7.4, prepared in 95% H2O and 5% ^2H2O. Two-dimensional NMR spectra were recorded in the phase-sensitive mode using the States—TPPI method (States et al. 1982). All experiments were carried out using the WATERGATE pulse sequence for water suppression (Piotto et al. 1992) or using the excitation sculpting water suppression (Hwang et al. 1995) to eliminate solvent signal in H2O/^2H2O 95:5 solution. The two-dimensional COSY, TOCSY and NOESY spectra were recorded at 280 K. TOCSY spectra were recorded using a MLEV-17 spin-lock sequence (Bax et al. 1985) with a mixing time (τm) of 35 and 70 ms, respectively. 2D NOESY experiments were recorded at a mixing time (τm) of 100, 200 or 500 ms. The heteronuclear spectra ^1H-^13C HSQC were recorded at 280 K in the same conditions. […] Transferred nuclear Overhauser effect (TRNOESY) spectra of Pep8 with RANK receptor-Fc protein were recorded using a mixing time (Tm) of 100, 200 or 500 ms.

With NVLKLCSGE [Pep8, NVLKLCSGE] as the sequence, how does the “STD relative transfer ratio of residues C6S7” value (hRANK) read?
Its value is 60%.

And the “STD saturation received by residues L3K4L5” value (hRANK)?
Its value is 100%.

What about the IC50 (murine CD11b+ cells) of the same sequence?
The IC50 was 30 µM.

What about the “IC50 of osteoclast formation” value (murine CD11b+ cells) of the same sequence?
The value was 29 µg/mL.

And the “number of TRAP-positive multinucleated cells, % of the number formed without the polypeptide” value (murine CD11b+ cells; 100 μM, murine cultures)?
Its value is 28%.

What about the “stability under experimental NMR conditions” value [1] of the same sequence?
The value was “remained stable”.
